{
  "source": "patent US20140024653A1",
  "about": "“COMPOSITIONS AND METHODS FOR TREATING CANCER USING PI3K INHIBITOR AND MEK INHIBITOR” (priority 2011, published 2014)",
  "key": {"[1]": {"tested_on": "human pancreatic MiaPaCa-2", "assay": "antitumor activity against subcutaneous MiaPaCa-2 xenografts", "format": "in vivo, nude mice", "conditions": "21 days", "method": "The human pancreatic cancer cell line MiaPaCa-2 (American Type Culture Collection, Manassas Va.), was cultured in MEM medium containing 10% fetal bovine serum, 1% essential amino acid, 1% sodium pyruvate (Life Technologies, Carlsbad, Calif.). […] Cells were re-suspended in PBS (Life Technologies, Carlsbad, Calif.) and then mixed 1:1 with Matrigel (BD Biosciences, San Jose, Calif.). Cells were stored at 4° C. until implantation. MiaPaCa-2 cells (10×10^6 in a 200 μl PBS:Matrigel (1:1) suspension) were subcutaneously injected into the right flank area of female nude (Crl:NU-Foxn1nu) mice (6-8 weeks old, Charles River Laboratories, Wilmington, Mass.). All mice in this study were used according to the guidelines approved by the EMD-Serono Institutional Care and Animal Use Committee (IACUC), #07-003. Developing tumors located in the right flank area of female nude mice were measured over time with digital calipers. […] The remaining tumor-bearing mice were randomized into seven experimental groups (n=9), so that each group had the same mean tumor volume. […] The treatments began on the seventh day following implantation of the Miapaca-2 cells, which was designated as Day 0 for data evaluation purposes. […] Body weights and tumor volumes were assessed twice per week post treatment initiation. […] Efficacy was determined by analyzing tumor volumes and the percent ΔT/ΔC (% ΔT/ΔC). Tumor volume was determined by using the tumor length (1) and width (w) measurements and calculating the volume with the equation 1*w^2/2. The length was measured along the longest axis of the tumor and width was measured perpendicular to that length. The mean percent of actual tumor growth inhibited by the treatments was calculated as follows: [% ΔT/ΔC=(([…]))×100%], where TV=tumor volume, f=final, i=initial and Ctrl=control group. Tolerability was assessed by regarding percent body weight difference during the treatment period. Percent body weight difference was calculated as follows: [% Body weight difference=(BWc-BWi)/BWi×100%], where BW=body weight, c=current, i=initial."}, "EJ28": {"tested_on": "EJ28", "assay": "SRB cell growth assay, 72 h", "format": "cell-based, human", "conditions": "single agent"}, "A375": {"tested_on": "A375", "assay": "SRB cell growth assay, 72 h", "format": "cell-based", "conditions": "Homo sapiens, A-375, most sensitive cell lines", "method": "(§1) Cell growth and treatment were performed in 96-well microtitre plates CELLSTAR® (Greiner Bio-One, Germany). Cells harvested from exponential phase cultures by trypsinization were plated in 150 μl of media at optimal seeding densities. The optimal seeding densities for each cell line were determined to ensure exponential growth for the duration of the experiment. All cells growing without anticancer agents were sub-confluent by the end of the treatment as determined by visual inspection.\n(§2) 150 μl of cells, after a 24-hour pre-growth period, were treated by mixing with 50 μl of the compound containing media (resulting in a final DMSO concentration of 0.1%). The cells were allowed to grow at 37° C. for 72 hours. In addition, all experiments contained a few plates with cells that were processed for measurement immediately after the 24 hours recovery period. These plates contained information about the cell number that existed before treatment, at time zero, and served to calculate the cytotoxicity.\n(§3) After treatment, cells were precipitated by addition of 10% TCA. Prior to fixation, the media was aspirated as described. After an hour of incubation at 4° C., the plates were washed two times with 400 μl of deionized water. Cells were then stained with 100 μl of a 0.08% wt/v SRB. The plates were allowed to sit for at least 30 min. and washed six times with 1% acetic acid to remove unbound stain. The plates were left to dry at room temperature and bound SRB was solubilized with 100 μl of 10 mM Tris base. Measurement of optical density was performed at 560 nm on a Victor 2 plate reader (Perkin Elmer, Germany). The SRB values for A375 and H460 cell lines were near to saturation (2.5 OD units) due to the high protein content of these cells, but not cell confluence. The measurements for these cells were performed at 520 nm instead of 560 nm.\n(§4) Using these measurements, cellular responses can be calculated for incomplete inhibition of cell growth (GI), complete inhibition of cell growth (T GI) and net loss of cells (LC) due to compound activity. […] This is the drug concentration causing a 50% reduction compared to the net protein increase in control cells during the drug incubation period. In other words, GI50 is IC50 corrected for time zero. Similar to IC90, calculated GI90 values are also reported for all compounds tested. TGI was calculated from Ti=Tz. […] It was calculated as 100×[(Ti−Tz)/Tz]=−50. However, due to 72 hours treatment, low cell seeding density was required and LC50 could rarely be achieved."}, "SKOV3": {"tested_on": "SKOV3", "assay": "SRB cell growth assay, 72 h", "format": "cell-based", "conditions": "Homo sapiens, SK-OV-3, highest tested concentration 50 μM, read-out: activity (estimated)", "method": "as §1, §2, §3, §4"}, "SKNAS": {"tested_on": "SKNAS", "assay": "SRB cell growth assay, 72 h", "format": "cell-based", "conditions": "Homo sapiens, SK-N-AS, most sensitive cell lines", "method": "as §1, §2, §3, §4"}, "EFO21": {"tested_on": "EFO21", "assay": "SRB cell growth assay, 72 h", "format": "cell-based", "conditions": "Homo sapiens, EFO-21, highest tested concentration 50 μM, read-out: activity (estimated)", "method": "as §1, §2, §3, §4"}, "CLS439": {"tested_on": "CLS439", "assay": "SRB cell growth assay, 72 h", "format": "cell-based", "conditions": "Homo sapiens, highest tested concentration 50 μM, read-out: activity (estimated)", "method": "as §1, §2, §3, §4"}, "SKMEL5": {"tested_on": "SKMEL5", "assay": "SRB cell growth assay, 72 h", "format": "cell-based", "conditions": "Homo sapiens, SK-MEL-5, most sensitive cell lines", "method": "as §1, §2, §3, §4"}, "SF295": {"tested_on": "SF295", "assay": "SRB cell growth assay, 72 h", "format": "cell-based", "conditions": "Homo sapiens, SF-295, highest tested concentration 50 μM, read-out: activity (estimated)", "method": "as §1, §2, §3, §4"}, "NCIH292": {"tested_on": "NCIH292", "assay": "SRB cell growth assay, 72 h", "format": "cell-based", "conditions": "Homo sapiens, NCI-H292, most sensitive cell lines", "method": "as §1, §2, §3, §4"}, "[2]": {"tested_on": "human colon carcinoma HCT 116", "assay": "HCT116 tumor growth in fluorescence molecular tomography study", "format": "in vivo, SCID mice", "conditions": "NS"}, "[3]": {"conditions": "mice; cited from earlier work"}, "[4]": {"tested_on": "panel of 81 cancer cell lines", "assay": "SRB cell growth assay, 72 h, cell line panel", "format": "cell-based, human"}, "CAKI1": {"tested_on": "CAKI1", "assay": "SRB cell growth assay, 72 h", "format": "cell-based", "conditions": "Homo sapiens, CAKI-1, most sensitive, z-score <−1.5", "method": "as §1, §2, §3, §4"}, "A204": {"tested_on": "A204", "assay": "SRB cell growth assay, 72 h", "format": "cell-based", "conditions": "Homo sapiens, most sensitive, z-score <−1.5", "method": "as §1, §2, §3, §4"}},
  "note": "Where two headings read alike, the source gives them in different places.",
  "data": [
    {"compound": "O=C(NC[C@H](O)CO)c1ccncc1Nc1ccc(I)cc1F", "note": "[Compound (1), N—((S)-2,3-dihydroxypropyl)-3-(2-fluoro-4-iodo-phenylamino)isonicotinamide]", "values": [
      {"measurement": "% ΔT/ΔC", "setting": "[1]; AS703026 5 mg/kg po QD, 5 mg/kg", "value": 56.2, "unit": "%"},
      {"measurement": "z-score MSC6369", "setting": "EJ28", "value": "−0.68"},
      {"measurement": "IC50", "setting": "A375", "value": "4.8 to 8", "unit": "nM"},
      {"measurement": "IC50", "setting": "SKOV3", "value": "> 50000", "unit": "nM"},
      {"measurement": "IC50", "setting": "SKNAS", "value": "4.8 to 8", "unit": "nM"},
      {"measurement": "IC50", "setting": "EFO21", "value": "> 50000", "unit": "nM"},
      {"measurement": "IC50", "setting": "CLS439", "value": "> 50000", "unit": "nM"},
      {"measurement": "IC50", "setting": "SKMEL5", "value": "4.8 to 8", "unit": "nM"},
      {"measurement": "IC50", "setting": "SF295", "value": "> 50000", "unit": "nM"},
      {"measurement": "IC50", "setting": "NCIH292", "value": "4.8 to 8", "unit": "nM"},
      {"measurement": "ΔT/ΔC at the end of study", "setting": "[2]; (1) 10 mg/kg oral daily day 11 to day 17", "value": 40, "unit": "%"},
      {"measurement": "two-week maximum tolerated dose", "setting": "[3]", "value": 60, "unit": "mg/kg BID"},
      {"measurement": "cell lines sensitive below 100 nM", "setting": "[4]; 82 cell lines", "value": "27 of 82"},
      {"measurement": "IC50", "setting": "[4]; Homo sapiens, median of cell lines tested, read-out: median sensitivity", "value": 490, "unit": "nM"},
      {"measurement": "IC50", "setting": "[4]; Homo sapiens, sensitive cell lines of the panel, read-out: Efficacy in sensitive cell lines", "value": "4 to 5", "unit": "nM"},
      {"measurement": "difference between the most and least sensitive cell lines", "setting": "[4]; panel", "value": 10.000, "unit": "fold"}
    ]},
    {"compound": "CCn1c(=O)c(-c2ccn[nH]2)cc2c(C)nc(N)nc21", "note": "[Compound (2b), 2-amino-8-ethyl-4-methyl-6-(1H-pyrazol-5-yl)pyrido[2,3-d]pyrimidin-7(8H)-one]", "values": [
      {"measurement": "% ΔT/ΔC", "setting": "[1]; XL-765 30 mg/kg po QD, 30 mg/kg", "value": 77.0, "unit": "%"},
      {"measurement": "z-score MSC0765", "setting": "EJ28", "value": 1.25},
      {"measurement": "GI50", "setting": "CAKI1", "value": "< 500", "unit": "nM"},
      {"measurement": "GI50", "setting": "A204", "value": "< 500", "unit": "nM"},
      {"measurement": "ΔT/ΔC at the end of study", "setting": "[2]; (2b) 20 mg/kg oral daily day 11 to day 17", "value": 80, "unit": "%"},
      {"measurement": "GI50", "setting": "[4]; Homo sapiens, all 81 cell lines, log 10-transformed data", "value": "1300 to 1400", "unit": "nM"},
      {"measurement": "differences in activity between sensitive and insensitive cell lines", "setting": "[4]; panel", "value": "10-20 fold"}
    ]}
  ]
}
